# Data: publication PMC12491715 (Acta Pharmaceutica Sinica. B, 2025)
# Experiments:
# hAChE = hAChE (Homo sapiens, UniProt P22303); experiment: ChE IC50 determination, method of Ellman, hAChE; format: biochemical; details: for remaining activity at 100 µM: residual activity at 100 μmol/L, after 5 min preincubation, read-out: hAChE RA±SD (residual activity)
# Procedure: (§1) The inhibitory potencies of the compounds against the ChEs were determined using the method of Ellman following the procedure described previously. Briefly, compound stock solutions in DMSO were incubated with Ellman’s reagent and ChEs (final concentrations: 370 μmol/L Ellman’s reagent, approximately 1 nmol/L or 50 pmol/L hBChE or hAChE, respectively) in 0.1 mol/L sodium phosphate pH 8.0 for 5 min at 20 °C. For time-dependency measurements, the pre-incubation time was varied (1, 5, 15, 30 or 60 min). The reactions were started by the addition of the substrate (final concentration, 500 μmol/L butyrylthiocholine iodide or acetylthiocholine iodide for hBChE and hAChE, respectively). The final content of DMSO was always 1%. The increase in absorbance at 412 nm was monitored for 2 min using a 96-well microplate reader (Synergy HT, BioTek Instruments, VT, USA). The initial velocities in the presence (vi) and absence (v0) of the test compounds were calculated. The inhibitory potencies were expressed as the residual activities, according to Eq. (1):(1) RA = vi / v0
# (§2) For IC50 determinations, at least seven different concentrations for each compound were used. The IC50 values were obtained by plotting the residual ChE activities against the applied inhibitor concentrations, with the experimental data fitted to a four-parameter logistic function (GraphPad Prism 9.4). Tacrine and donepezil were used as positive controls.
# hBChE [1] = target: T1, hBChE (Homo sapiens, UniProt P06276); experiment: ChE IC50 determination, method of Ellman, hBChE; format: biochemical
# T1 sequence (P06276 29-602): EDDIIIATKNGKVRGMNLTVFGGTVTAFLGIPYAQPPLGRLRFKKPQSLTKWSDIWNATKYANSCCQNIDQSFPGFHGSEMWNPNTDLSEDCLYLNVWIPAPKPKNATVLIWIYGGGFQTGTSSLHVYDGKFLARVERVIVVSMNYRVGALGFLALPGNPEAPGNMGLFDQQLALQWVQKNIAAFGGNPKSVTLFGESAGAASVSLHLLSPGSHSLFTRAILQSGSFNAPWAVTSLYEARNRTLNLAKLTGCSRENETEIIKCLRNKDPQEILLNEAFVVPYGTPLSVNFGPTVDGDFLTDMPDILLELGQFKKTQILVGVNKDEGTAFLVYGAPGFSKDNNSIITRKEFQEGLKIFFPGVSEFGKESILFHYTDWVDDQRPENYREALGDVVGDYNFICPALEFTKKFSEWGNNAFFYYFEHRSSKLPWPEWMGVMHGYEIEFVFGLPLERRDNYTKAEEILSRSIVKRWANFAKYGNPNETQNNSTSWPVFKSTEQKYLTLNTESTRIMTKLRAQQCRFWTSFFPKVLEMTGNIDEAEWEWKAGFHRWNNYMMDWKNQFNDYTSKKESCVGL
# Procedure: as §1, §2
# α2 adrenoreceptors = test system: α2 adrenoreceptors; design: method as in PMID 1975199, PMID 16389294; details: α2 adrenergic antagonist; cited from earlier work
# [2] = design: method as in PMID 1975199, PMID 16389294; details: in humans; cited from earlier work
# [3] = test system: ICR mice icv-injected with Aβ1–42; experiment: Morris water maze, mice model with icv-injection of Aβ1–42; format: in vivo; details: 10 mg/kg, ip; compared with compound 8
# Procedure: Mice model with icv-injection of Aβ1–42 The experiments were performed using ICR male mice (8–10 weeks old, weight 18–20 g), which were purchased from Shanghai Bikai Animal Breeding Factory (Shanghai, China). Animals were housed in cages (6 mice per cage) at a constant temperature of 25±2 °C, humidity of 55%±10% and a light/dark (12:12) cycle. The mice had unlimited access to food and water prior to the experiment. Specified conditions for the maintenance of mice were ensured throughout the experiments, including tree bedding (Yizheng Anlimao Biotechnology Co., Ltd., China) and lab feed (Zimao, China). For behavioural tests, mice were selected randomly, each group consisted of 6 mice. The experiments were performed between 9 am and 3 pm.
# According to the literature procedure, recombinant human hexafluoroisopropanol-pretreated Aβ1–42 from Merck Millipore (Darmstadt, Germany) was dissolved in 1% DMSO, diluted with saline to the final concentration of 2 mg/mL, and incubated for 72 h to form oligomers. […]
# Behavioural assays The Morris water maze was placed in a lighted room at 25 °C, and it was divided into four equal quadrants. […] The time spent searching for the missing platform was recorded by Xeye Aba image processing system (Beijing Zhongshi Dichuang Technology Development Co., Ltd.) and analysed by GraphPad Prism 5.
# hBChE [4] = target: T1, hBChE; experiment: hBChE binding kinetics: carbamoylation and decarbamoylation, initial velocity measurements; format: biochemical
# Procedure: The progress curves for the time courses of product formation for the hydrolysis of butyrylthiocholine iodide were measured on an Agilent Cary 3500 UV–VIS spectrophotometer with Compact Peltier (thermostated at 25 °C) at 412 nm using a 0.6 mL cuvette (optical path–0.5 cm). 30 mmol/L Tris buffer pH 7.0 with 1 mg/mL BSA and 0.02% NaN3 was used and all dilutions were done in glass vessels (note: dilute hBChE solutions rapidly lose activity, presumably due to adsorption to plastic, preventing meaningful decarbamoylation assays. In our hands, under the above conditions only, the diluted and stock solutions of hBChE were stable for at least a month at room temperature.). Total volume in the cuvette was always 500 μL, and enzyme solutions that gave upon dilution v0 = (dA/dt) ≈ 0.5 (for carbamoylation) and ≈ 1 for (for decarbamoylation) were used. For carbamoylation experiments, 0.5–1 μL of enzyme stock, 5 μL of compound solution, and 484 μL of buffer were preincubated for the specified time, then 10 μL of the mixture of 25 mmol/L Ellman’s reagent (DTNB) and 20 mmol/L butyrylthiocholine (large excess to prevent substrate depletion) were added, quickly mixed, and measurement started. […] The data analysis followed the literature[63]^,[98].
# hAChE, sequence (P22303 32-614): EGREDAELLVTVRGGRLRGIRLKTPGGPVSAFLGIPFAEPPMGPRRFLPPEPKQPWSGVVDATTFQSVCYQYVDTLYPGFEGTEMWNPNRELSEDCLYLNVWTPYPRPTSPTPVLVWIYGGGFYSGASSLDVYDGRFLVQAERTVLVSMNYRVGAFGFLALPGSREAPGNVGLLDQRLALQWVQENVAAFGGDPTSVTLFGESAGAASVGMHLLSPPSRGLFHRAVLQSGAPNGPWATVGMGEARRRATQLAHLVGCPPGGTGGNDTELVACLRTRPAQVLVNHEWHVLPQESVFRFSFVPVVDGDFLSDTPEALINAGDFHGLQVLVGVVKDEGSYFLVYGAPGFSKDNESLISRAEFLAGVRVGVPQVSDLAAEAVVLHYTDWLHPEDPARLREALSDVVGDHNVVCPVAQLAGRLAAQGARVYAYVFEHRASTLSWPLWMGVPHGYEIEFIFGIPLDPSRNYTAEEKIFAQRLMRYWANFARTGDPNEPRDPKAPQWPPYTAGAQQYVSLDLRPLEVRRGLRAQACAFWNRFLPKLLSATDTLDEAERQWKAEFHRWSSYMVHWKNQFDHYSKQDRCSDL
Compound,remaining activity at 100 µM (hAChE) [%],ChE inhibition of the leaving groups (hBChE [1]; ChEs (hBChE and hAChE)),"remaining activity at 100 µM (hBChE [1]; residual activity at 100 μmol/L, after 5 min preincubation, read-out: hBChE RA±SD (residual activity)) [%]",potency compared to idazoxan 2 (α2 adrenoreceptors),half-life [2] [h],hAChE time-dependency observed: Yes/No (hAChE; pre-incubation time varied),"IC50 (hBChE [1]; after 5 min preincubation, read-out: hBChE IC50±SD) [nM]",hBChE time-dependency observed: Yes/No (hBChE [1]; pre-incubation time varied),effectiveness in MWM test [3],Ki (hBChE [4]) [nM],"kcarb, carbamoylation (hBChE [4]; 25 °C) [min^–1]","kdecarb, decarbamoylation (hBChE [4]; 25 °C)","t1/2, decarbamoylation (hBChE [4]; 25 °C) [h]","ΔG25°C‡, carbamoylation (hBChE [4]; 25 °C) [kcal/mol]"
"CCC1(c2cnc[nH]2)Cc2ccccc2C1 [Compound 5, 4-(2-ethylindan-2-yl)-1H-imidazole, reference compound]",82,ineffective,82,approx. 100 fold,1.7 to 2,–,–,–,–,–,–,–,–,–
"CCN(C)C(=O)n1cnc(C2(CC)Cc3ccccc3C2)c1 [Compound 7, N-Ethyl-4-(2-ethylindan-2-yl)-N-methyl-1H-imidazole-1-carboxamide]",52 ± 3,–,–,–,–,Yes,9.9 ± 0.9,Yes,less effective,73 ± 6,7.2±4.5,0.92±0.14 ×10^–2 h^–1,75 ± 11,18.7 ± 0.4
